According to patent US20100292316A1, “IMPROVED THERAPEUTIC METHODS AND COMPOSITIONS COMPRISING CHROMAN RING COMPOUNDS” (Research Development Foundation, priority 2007, published 2010):

System: MDA-MB-435 human breast cancer cells
Experiment: DNA microarray gene expression after α-TEA treatment
Assay type: cell-based
Design: scale not given here
Conditions: MDA-MB-435, 40 μM, 12 h
Description: In order to identify genes that are involved in α-TEA induced apoptosis in cancer cells the gene expression levels in MDA-MB-435 human breast cancer cells were analyzed after treatment with α-TEA. The MDA-MB-435 cell line is an estrogen-receptor negative/estrogen-nonresponsive epithelial cell line isolated from the pleural effusions of a human with breast cancer (Price et al., 1990). DNA microarray data obtained from treatment of MDA-MB-435 cells with 40 μM α-TEA for 12 h identified approximately 400 genes that gave consistent responses to α-TEA treatment. Genes that passed a minimum quality control threshold were analyzed using online software (The Database for Annotation, Visualization and Integrated Discovery (DAVID)).
MDA-MB-435 cells were cultured in MEM with Earle's balanced salts (Life Technologies, Inc., Grand Island, N.Y.) supplemented with 5% FBS (Hyclone Laboratories, Logan, Utah) plus 2 mM glutamine, 100 μg/ml streptomycin, 100 IU/ml penicillin, 1×(v/v) nonessential amino acids, 2×(v/v) MEM vitamins, and 1 mM sodium pyruvate (Sigma).
Messenger RNA was isolated from the treated MDA-MB-435 cells (3×150 mm dishes) using the FastTrack 2.0 kit (Invitrogen) according to the manufacturer's instructions. First, 15 ml of lysis buffer was added into the cell pellets and mixed thoroughly. The cell lysates were incubated in 45° C. for 45 min with intermittent inversion. Then, 950 μl of 5 M NaCl stock solution was added and mixed thoroughly. Any remaining DNA was sheared by passing the lysates 3 times through a sterile plastic syringe fitted with a 21 gauge needle. Next, the calculated amount of oligo-dT cellulose was added to each sample and allowed to swell for 2 minutes. The tube was rocked gently in a horizontal position for 60-90 minutes at room temperature. The oligo-dT slurry was centrifuged at 4000 rpm for 5 minutes at room temperature, the supernatant was carefully removed from the resin bed. The oligo-dT cellulose was then resuspended in 20 ml of Binding Buffer by vortexing and centrifuged at 4000 rpm for 5 minutes at room temperature, the binding buffer was removed from the resin bed; this step was repeated with 10 ml of binding buffer. The oligo-dT cellulose was washed three times in 10 ml of Low Salt Wash Buffer and centrifuged. The resulting oligo-dT cellulose was resuspended in 800 μl of Low Salt Wash Buffer using a 1 ml pipette tip with a cut-end and quickly transferred to a spin column seated in a microcentrifuge tube. The column was centrifuged at 1000 rcf (about 3000 rpm on a typical microcentrifuge) for 10 seconds at room temperature and the flow-through liquid was discarded. The transfer and centrifugation steps were repeated until all of the oligo-dT cellulose was in the spin column. Then, the spin column containing the oligo-dT cellulose was placed into a clean microcentrifuge tube. The oligo-dT cellulose was resuspended in 200 μl of preheated Elution Buffer (65° C.) using a 200 μl cut-end pipette tip to gently swirl the cellulose, without puncturing the underlying spin column membrane. The column was allowed to stand for 2 minutes at room temperature and then centrifuged at 1000 rcf for 30 seconds at room temperature. This step was repeated with 200 μl of heated Elution Buffer. Then, 40 μl of 3 M sodium acetate and 1 ml of 95% ethanol were added into the combined 400 μl eluent which contained the mRNA and mixed thoroughly. The mRNA mixture was stored at −80° C. overnight. Thenext day, the mixture was thawed and centrifuged at 14,000 rpm in a microcentrifuge for 15 minutes at 4° C., the ethanol was then carefully removed from the mRNA pellet. The mRNA was washed with 70% ethanol once more and resuspended in 20 μl of Elution Buffer (heated as before). […]

Compound `Cc1c(C)c2c(c(C)c1OCC(=O)O)CC[C@@](C)(CCC[C@H](C)CCC[C@H](C)CCCC(C)C)O2` [α-TEA] has an Average level (Clone IMAGE: 5311129, mRNA, AI362218) of −0.8568, an Average level (EST, AI201652) of −0.7242 and an Average level (Homo sapiens transcribed sequence with strong similarity to protein pdb: 1BGM, AA779865) of −0.735. The Average level (Homo sapiens transcribed sequences, R55747) was −0.756, the Average level (MRNA full length insert cDNA clone EUROIMAGE 200999, N54993) was −0.698 and the Average level (Transcribed sequences, H99855) was −0.8377. For the same compound, the Average level (gene AGPAT3, R61733) was −0.743, the Average level (gene AGTRAP, AA152101) was −0.574 and the Average level (gene AKR1C2, AI924357) was −0.865. The Average level (gene AMD1, R82299) was −0.758, the Average level (gene ATOX1, AA418755) was −0.898 and the Average level (gene ATP5G1, AA046701) was −0.6558. The Average level (gene BAT3, AA598629) was −0.5502, the Average level (gene BST2, AA485371) was −0.5935 and the Average level (gene C7orf38, AA452899) was −0.6558. It also gave an Average level (gene C9orf58, H48148) of −0.5662, an Average level (gene C13orf8, AA463267) of −0.6892 and an Average level (gene C14orf24, AA035549) of −0.6602. The Average level (gene C16orf34, AA045658) was −0.7252, the Average level (gene CDCA2, AI248208) was −0.719 and the Average level (gene CHD9, R81880) was −0.6642. For the same compound, the Average level (gene CLCN3, H69811) was −0.6208, the Average level (gene COX7B, AA629999) was −0.8798 and the Average level (gene CRABP1, AA421218) was −0.7923. The Average level (gene CRTAP, AA490280) was −0.7943, the Average level (gene CTNNB1, AW058504) was −0.59 and the Average level (gene CUGBP2, AA047257) was −0.8218. The Average level (gene CXXC5, R63735) was −0.8002, the Average level (gene D4ST1, AA922082) was −0.6567 and the Average level (gene DAG1, AA496691) was −0.8377. It also gave an Average level (gene DCT, N27147) of −0.8518, an Average level (gene DEPDC6, AA621364) of −0.93 and an Average level (gene DHCR24, AA482324) of −0.8912. It also gave an Average level (gene DPY19L2, AA134696) of −0.7558, an Average level (gene EPHB2, W72792) of −0.6663 and an Average level (gene ERBB3, AA664212) of −0.864. The Average level (gene ETFB, AI364521) was −0.6326, the Average level (gene FAM83D, R96941) was −0.5566 and the Average level (gene FBXL13, AA676859) was −0.8802. The Average level (gene FLJ12973, AI220472) was −0.7147, the Average level (gene FLJ21901, AI392678) was −0.8782 and the Average level (gene FZD4, AA677200) was −0.765. It also gave an Average level (gene GFER, AA465021) of −0.5873, an Average level (gene GGH, AA455800) of −0.8048 and an Average level (gene GNG2, N26108) of −0.9006. For the same compound, the Average level (gene HBS1L, AI003293) was −0.6832, the Average level (gene HNRPM, AA504272) was −0.6512 and the Average level (gene HSBP1, AA481263) was −0.735. The Average level (gene IFT122, R97234) was −0.585, the Average level (gene ITGB8, AI246160) was −0.7288 and the Average level (gene KIAA0664, AI363909) was −0.8538. It also gave an Average level (gene LGALS13, AA706870) of −0.8452, an Average level (gene LOC151162, H79970) of −0.6815 and an Average level (gene LOC286334, AA425105) of −0.8562. For the same compound, the Average level (gene LRRK2, AA283609) was −0.8566, the Average level (gene LTBP3, R60197) was −0.6094 and the Average level (gene MAF1, AA598994) was −0.8305. For the same compound, the Average level (gene MAN1A2, R22905) was −0.8387, the Average level (gene MGA, AA011551) was −0.74 and the Average level (gene MGC4692, AA455039) was −0.7943. It also gave an Average level (gene MLANA, N26562) of −0.551, an Average level (gene MVK, R06716) of −0.673 and an Average level (gene MYEF2, H96671) of −0.6864. It also gave an Average level (gene MYO5A, H20809) of −0.6754, an Average level (gene NETO2, AA456821) of −0.6854 and an Average level (gene NOV, AW008840) of −0.7034. For the same compound, the Average level (gene NQO1, AA455538) was −0.8166, the Average level (gene NUPL1, AA158352) was −0.8132 and the Average level (gene NUPL2, R96358) was −0.7312. The Average level (gene NUSAP1, AA620485) was −0.617, the Average level (gene OVOS2, AA600184) was −0.9275 and the Average level (gene PCDHB16, AI218958) was −0.7648. The Average level (gene PFKFB2, R16146) was −0.6214, the Average level (gene PLEKHF2, AA886792) was −0.8846 and the Average level (gene SCD, R00707) was −0.8732. The Average level (gene SFRS2, AA454585) was −0.7076, the Average level (gene SGCD, AA479286) was −0.8855 and the Average level (gene SLC26A2, AA704222) was −0.9114. It also gave an Average level (gene SLC44A1, R59173) of −0.6684, an Average level (gene SLC44A1, T61913) of −0.6626 and an Average level (gene SNX12, AA629796) of −0.611. The Average level (gene SOS1, H64324) was −0.6138, the Average level (gene STARD7, R37351) was −0.7862 and the Average level (gene TBC1D1, R32437) was −0.8948. It also gave an Average level (gene TBC1D16, AI431804) of −0.9208, an Average level (gene TMPO, H21943) of −0.7848 and an Average level (gene TMPO, T63980) of −0.7846. For the same compound, the Average level (gene TNFRSF21, AA490494) was −0.8622, the Average level (gene TNS3, T74023) was −0.8212 and the Average level (gene TOP2A, AA504348) was −0.7142. The Average level (gene TREX1, AA279658) was −0.861, the Average level (gene TRIM2, AA464935) was −0.922 and the Average level (gene TSHZ1, AA426522) was −0.865. It also gave an Average level (gene TWSG1, N91767) of −0.6, an Average level (gene USP40, H29211) of −0.8932 and an Average level (gene VAV3, H10045) of −0.9075. The Average level (gene VPRBP, AA644335) was −0.702, the Average level (gene VPS13D, AI005042) was −0.7177 and the Average level (gene WASPIP, AA283699) was −0.8604. The Average level (gene ZNF291, AA001504) was −0.6362.
